# Key:
# [1] = tested on: VeroE6 and A549-hACE2 cells
# [2] = tested on: SARS-CoV-2 original virus (SARS-CoV-2/human/Denmark/DK-AHH1/2020); experiment: microbe, parasite or virus in culture; format: cell-based
# [3] = human, in vivo; cited from earlier work
# [4] = Severe acute respiratory syndrome coronavirus 2
# [5] = Severe acute respiratory syndrome coronavirus 2, Vero C1008
Structure (SMILES),"Cytotoxicity (cell viability, CC50) [1]","EC50 [2, 4] [nM]","EC50 [2, 5] [nM]",Cmax [3] [µM]
"Cn1cnc(Cn2c(=O)[nH]/c(=N\c3cc4cn(C)nc4cc3Cl)n(Cc3cc(F)c(F)cc3F)c2=O)n1 [ENS, Ensitrelvir]",low,100,420,57
"CC(C)(C)[C@H](NC(=O)C(F)(F)F)C(=O)N1C[C@H]2[C@@H]([C@H]1C(=O)N[C@H](C#N)C[C@@H]1CCNC1=O)C2(C)C [NIR, Nirmatrelvir]",,40,2900,
